Here are results for 15 compounds from ChEMBL document CHEMBL3232755, “Optimization of plasmepsin inhibitor by focusing on similar structural feature with chloroquine to avoid drug-resistant mechanism of Plasmodium falciparum” (Bioorg Med Chem Lett, 2014).

The test system of experiment [1] is Plasmodium falciparum. As to the kind of experiment: Antimalarial activity against chloroquine and pyrimethamine-resistant mefloquine-sensitive Plasmodium falciparum W2 by SYBR green I staining-based fluorescence assay. In kind it is functional, organism-based.
Experiment [2] deals with Plasmodium falciparum. As to the kind of experiment: Resistance index, ratio of EC50 for chloroquine and pyrimethamine-resistant mefloquine-sensitive Plasmodium falciparum W2 to EC50 for chloroquine-sensitive Plasmodium falciparum D6. In kind it is functional.
Experiment [3] deals with Plasmodium falciparum. Kind of experiment: Resistance index, ratio of EC50 for chloroquine, mefloquine and pyrimethamine-resistant Plasmodium falciparum TM91C235 to EC50 for chloroquine-sensitive Plasmodium falciparum D6. It is filed as functional.
Experiment [4] concerns Plasmodium falciparum. As to the kind of experiment: Antimalarial activity against chloroquine-sensitive Plasmodium falciparum D6 by SYBR green I staining-based fluorescence assay. In kind it is functional, organism-based.
Experiment [5] has as its target Plasmepsin II (Plasmodium falciparum, UniProt P46925). As to the kind of experiment: Inhibition of Plasmodium falciparum plasmepsin 2.
In experiment [6] the test system is Plasmodium falciparum. Kind of experiment: Antimalarial activity against chloroquine, mefloquine and pyrimethamine-resistant Plasmodium falciparum TM91C235 by SYBR green I staining-based fluorescence assay. In kind it is functional, organism-based.

Chain of Plasmepsin II (P46925 whole entry): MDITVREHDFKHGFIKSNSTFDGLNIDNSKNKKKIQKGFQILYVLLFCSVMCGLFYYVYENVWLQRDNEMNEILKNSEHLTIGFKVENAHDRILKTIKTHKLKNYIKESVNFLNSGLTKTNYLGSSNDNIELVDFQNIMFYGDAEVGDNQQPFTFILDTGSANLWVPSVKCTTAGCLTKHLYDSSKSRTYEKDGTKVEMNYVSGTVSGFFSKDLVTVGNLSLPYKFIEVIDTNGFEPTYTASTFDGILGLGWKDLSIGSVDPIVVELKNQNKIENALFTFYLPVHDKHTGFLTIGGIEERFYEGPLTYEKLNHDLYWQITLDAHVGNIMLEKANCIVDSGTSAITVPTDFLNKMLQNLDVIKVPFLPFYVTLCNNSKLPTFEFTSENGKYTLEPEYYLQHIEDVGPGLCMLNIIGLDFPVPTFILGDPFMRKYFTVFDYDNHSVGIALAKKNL

As to `Cc1cc(NCc2ccccn2)cc(C)c1OCC(=O)N[C@@H](Cc1ccccc1)[C@H](O)C(=O)N1CSC(C)(C)[C@H]1C(=O)N[C@H]1c2ccccc2C[C@H]1O`, the EC50 in experiment [1] was 730 nM. Moreover, the “Ratio EC50” value in experiment [2] is on record as 1.3.

`COC(CNc1cc(C)c(OCC(=O)N[C@@H](Cc2ccccc2)[C@H](O)C(=O)N2CSC(C)(C)[C@H]2C(=O)N[C@H]2c3ccccc3C[C@H]2O)c(C)c1)OC`: the “Ratio EC50” value in experiment [3] is recorded as “<=2”. Also, the EC50 in experiment [4] came out at 850 nM. Also, the Ki in experiment [5] worked out at 11 nM.

As to `CCNCCNc1cc(C)c(OCC(=O)N[C@@H](Cc2ccccc2)[C@H](O)C(=O)N2CSC(C)(C)[C@H]2C(=O)N[C@H]2c3ccccc3C[C@H]2O)c(C)c1`, in experiment [3], the “Ratio EC50” value is listed as 8.6. In addition, in experiment [6], a half-maximal response (EC50) required 1900 nM.

For `CCOP(=O)(CCNc1cc(C)c(OCC(=O)N[C@@H](Cc2ccccc2)[C@H](O)C(=O)N2CSC(C)(C)[C@H]2C(=O)N[C@H]2c3ccccc3C[C@H]2O)c(C)c1)OCC`, the “Ratio EC50” value in experiment [3] is on record as “<=2”. The EC50 in experiment [4] turned out to be 600 nM. In experiment [5], this compound displayed a Ki of 22 nM.

With `Cc1cccc(CNc2cc(C)c(OCC(=O)N[C@@H](Cc3ccccc3)[C@H](O)C(=O)N3CSC(C)(C)[C@H]3C(=O)N[C@H]3c4ccccc4C[C@H]3O)c(C)c2)n1`, the “Ratio EC50” value in experiment [3] is on record as “<=2”. Also, in experiment [5], the Ki is 4.4 nM.

Regarding `Cc1cc(NC(=O)CCCN)cc(C)c1OCC(=O)N[C@@H](Cc1ccccc1)[C@H](O)C(=O)N1CSC(C)(C)[C@H]1C(=O)N[C@H]1c2ccccc2C[C@H]1O`, the “Ratio EC50” value in experiment [3] was found to be 0.41. For the same compound, the EC50 in experiment [4] stood at 3200 nM; in experiment [6], 1300 nM. The compound also returned a Ki in experiment [5] of 1.1 nM.

Regarding `Cc1cc(NC(=O)CN)cc(C)c1OCC(=O)N[C@@H](Cc1ccccc1)[C@H](O)C(=O)N1CSC(C)(C)[C@H]1C(=O)N[C@H]1c2ccccc2C[C@H]1O`, in experiment [5], the Ki came out at 1.2 nM.

For `Cc1cc(NC(=O)CCCCCN)cc(C)c1OCC(=O)N[C@@H](Cc1ccccc1)[C@H](O)C(=O)N1CSC(C)(C)[C@H]1C(=O)N[C@H]1c2ccccc2C[C@H]1O`, the “Ratio EC50” value in experiment [3] is reported as 0.28. In addition, the concentration giving a half-maximal response (EC50) was determined as 2600 nM in experiment [4] and 720 nM in experiment [6]. In experiment [5], the Ki was determined as 5.7 nM.

Turning to `Cc1cc(NC(=O)CCCCN)cc(C)c1OCC(=O)N[C@@H](Cc1ccccc1)[C@H](O)C(=O)N1CSC(C)(C)[C@H]1C(=O)N[C@H]1c2ccccc2C[C@H]1O`, the “Ratio EC50” value in experiment [3] was determined as 0.34. For the same compound, the EC50 in experiment [4] is 1800 nM; in experiment [6] it was 620 nM. Moreover, in experiment [5], the Ki is 1 nM.

Turning to `Cc1cc(NCc2c[nH]cn2)cc(C)c1OCC(=O)N[C@@H](Cc1ccccc1)[C@H](O)C(=O)N1CSC(C)(C)[C@H]1C(=O)N[C@H]1c2ccccc2C[C@H]1O`, the “Ratio EC50” value in experiment [3] is listed as “<=2”. In experiment [5], this compound came in with an inhibition constant Ki of 4.8 nM.

For the compound `Cc1cc(NC(=O)CN2CCOCC2)cc(C)c1OCC(=O)N[C@@H](Cc1ccccc1)[C@H](O)C(=O)N1CSC(C)(C)[C@H]1C(=O)N[C@H]1c2ccccc2C[C@H]1O`, in experiment [5], the Ki came out at 4.3 nM. In other words, the single-digit nanomolar range.

For the compound `Cc1cc(NC(=O)CCN)cc(C)c1OCC(=O)N[C@@H](Cc1ccccc1)[C@H](O)C(=O)N1CSC(C)(C)[C@H]1C(=O)N[C@H]1c2ccccc2C[C@H]1O`, the “Ratio EC50” value in experiment [3] is 2.8. In addition, the EC50 in experiment [4] was determined as 260 nM; in experiment [6] it was 730 nM. The compound also came in with a Ki in experiment [5] of 2.3 nM.

Regarding `CNCCN(C)c1cc(C)c(OCC(=O)N[C@@H](Cc2ccccc2)[C@H](O)C(=O)N2CSC(C)(C)[C@H]2C(=O)N[C@H]2c3ccccc3C[C@H]2O)c(C)c1`, in experiment [3], the “Ratio EC50” value came out at 4.5. In experiment [6], this compound gave a concentration for a half-maximal effect (EC50) of 860 nM.

Regarding `Cc1cc(NCCCl)cc(C)c1OCC(=O)N[C@@H](Cc1ccccc1)[C@H](O)C(=O)N1CSC(C)(C)[C@H]1C(=O)N[C@H]1c2ccccc2C[C@H]1O`, the “Ratio EC50” value in experiment [3] is on record as “<=2”. In experiment [5], this compound returned a Ki of 5.5 nM.

On to `Cc1cc(NCc2ccnc3ccccc23)cc(C)c1OCC(=O)N[C@@H](Cc1ccccc1)[C@H](O)C(=O)N1CSC(C)(C)[C@H]1C(=O)N[C@H]1c2ccccc2C[C@H]1O`, for which the “Ratio EC50” value in experiment [3] is reported as “<=2”. The same compound came in with an EC50 in experiment [4] of 500 nM. In experiment [5], this compound returned a Ki of 1.7 nM.

One may read the EC50 as the midpoint of the concentration-response curve. In general, Ki refers to the dissociation constant of the complex between target and ligand, obtained from inhibition or displacement. A higher Ki goes with lower affinity.
